Test results as given in patent publication US9585388B2, “Synergistically acting ternary antimicrobial mixtures” (SYMRISE AG, priority 2011, dated 2017).

These compounds were tested on Aspergillus niger ATCC 16404 (assay: Test for adequate preservation (European Pharmacopoeia) in O/W emulsion, CFU reduction). Details: total concentration used 1 wt % in O/W emulsion, pH 5.5, initial CFU 1200000.
Format: cell-based
Description: In case of doubt, antimicrobial efficacy in the sense of this text is present when adequate preservation is established according to the European Pharmacopoeia (ISBN 3-7692-2768-9; Supplement 2001 to the 3rd Edition, page 421-422, chapter 5.1.3). The microbe preferably to be used is preferably Aspergillus niger ATCC16404. For further information on the procedure for testing for antimicrobial efficacy, reference is made in particular to example 1 given below.
Synergistic intensification (of antimicrobial action) is present when the synergy index (SI value) of the test mixture according to Kull (literature: F. C. Kull et al., Applied Microbiology Vol. 9, p. 538-541 (1961); D. C. Steinberg, Cosmetics & Toiletries Vol. 115(11), 59-62 (2000)) gives a value <1. For further information on calculation of the synergy index, reference is again made to example 1 given below. Once again, the microbe preferably to be used for determining the synergy index is the strain of Aspergillus niger stated above.
The test for adequate preservation was carried out according to the European Pharmacopoeia. […]
To determine the potentially synergistically intensified efficacy of ternary mixtures containing 2-phenoxyethanol, 1,2-decanediol and 1,2-hexanediol, the CFU-reducing properties were determined according to the test procedure described in example 1 for the individual substances, for various binary mixtures and for ternary mixtures according to the invention.
The synergy index (SI values) of the ternary mixtures according to the invention and binary mixtures not according to the invention according to Kull (literature: F. C. Kull et al., Applied Microbiology Vol. 9, p. 538-541 (1961); D. C. Steinberg, Cosmetics & Toiletries Vol. 115(11), 59-62 (2000) was calculated using the following equations. SI=Z*D/A+Z*E/B Binary mixtures: SI=Z*D/A+Z*E/B+Z*F/C Ternary mixture: wherein: D, E, F: factor of proportion of the individual constituents (e.g. 70 wt %=factor 0.70) A, B, C: CFU of the individual substances at time point 48 h Z: CFU of the binary/ternary mixture at time point 48 h […]
With `OCCOc1ccccc1` [product A, 2-phenoxyethanol] the “Aspergillus niger CFU after 48 h” value was 1100000 CFU.
With `CCCCCCCCC(O)CO` (stereo not drawn) [product B, 1,2-decanediol] the “Aspergillus niger CFU after 48 h” value was 1200000 CFU.
In the case of `CCCCC(O)CO` (stereo not drawn) [product C, 1,2-hexanediol], the “Aspergillus niger CFU after 48 h” value was 1000000 CFU.
